Patent publication US7307166B1, “Oxpurine nucleosides and their congeners, and acyl, derivatives thereof, for improvement of hematopoiesis” (Wellstat Therapeutics Corporation, priority 1987, dated 2007)

How the values were obtained:
[1] = tested on: Balb/C female mice; experiment: Hematopoietic recovery after cyclophosphamide in mice (spleen weight, blood cell counts); format: in vivo, mouse; conditions: for total neutrophil counts: 2 μmoles/mouse; for recovery of blood cell counts: Ex 58: mice treated with cyclophosphamide, other nonionic surfactants
[2] = tested on: Balb/C female mice; experiment: as above; format: in vivo, mouse; conditions: for spleen weight: Ex 38: day 7 after CP, guanosine 5, acyl derivatives 2.5 μmoles/mouse/day in 0.2% Tween 80 i.p. 6 days, Tween 80 0.2%
Description: Twenty-four hours later and each day thereafter for a total of 6 days, mice were given a 0.4 ml i.p. injection of either physiological saline (controls), guanine (5 μmoles/mouse/day), or guanosine (5 μmoles/mouse/day). On day 7 all 10 mice in each of the three groups were bled, and then sacrificed by cervical dislocation. Spleens were removed and weighed, and complete blood cell counts performed.
Twenty-four hours later and each day thereafter for a total of 6 days, mice were given a 0.4 ml i.p injection of either physiological saline (controls), Tween 80 (0.2%), guanosine (5 μmoles/mouse/day in 0.2% Tween 80), or 2.5 μmoles per mouse per day of one of the following acylated derivatives of guanosine in 0.2% Tween 80: triacetylguanosine, octanoylguanosine, lauroylguanosine, or palmitoylguanosine. On day 7 following CP administration all 10 animals from each of the 7 groups were bled, and then sacrificed by cervical dislocation. Spleens were removed and weighed, and complete blood counts performed.
Twenty-four hours later treatment was begun. Mice were given a 0.4 ml i.p. injection of either physiological saline (controls), Tween 80 (0.2%), or palmitoylguanosine (5 μmoles/mouse/day in 0.2% Tween 80). The timing of the treatments was varied within the groups. The control group was given saline on days 1-6. The mice receiving Tween 80 were treated either on days 1-4, 4-6 or 1-6. Palmitoylguanosine-treated mice were treated either on days 1-2, 1-4, 3-5, 4-6 or 1-6. If a group of mice received no Tween 80 or palmitoylguanosine on a given day, saline was administered by i.p. injection. Thus, there were 9 groups of 9 animals in all. On day 7 following CP administration all of the animals were bled and then sacrificed by cervical dislocation. Spleens were removed and weighed, and complete blood cell counts performed.
Twenty-four hours later and each day thereafter for a total of 6 days, mice were given a 0.4 ml i.p. injection of either physiological saline (controls), Tween 80 (0.5%), or one of three different doses of octanoylguanosine (0.5, 2.5, or 5 μmoles/mouse/day in 0.5% Tween 80). On day 7 following CP administration all 9 animals from each of the […] were bled and then sacrificed by cervical dislocation. Spleens were removed and weighed, and complete blood cell counts performed.
Twenty-four hours later and each day thereafter for a total of 6 days, mice were given a 0.4 ml i.p. injection of either physiological saline (controls), Tween 80 (0.5%), or octanoylguanosine (5.0 μmoles/mouse/day in 0.5% Tween 80). On day 7 following CP administration all 10 animals from each of the 3 groups were bled and then sacrificed by cervical dislocation. Spleens were removed, weighed, and fixed in 10% formalin for later histological examination. Complete blood cell counts were performed on the collected blood.
Twenty-four hours later and each day thereafter for a total of 6 days, mice were given a 0.4 ml i.p. injection of either physiological saline (controls), benzoylguanosine (2.5 μmoles/mouse/day in 0.2% Tween 80), or palmitoylguanosine (2.5 μmoles/mouse/day in 0.2% Tween 80). On days 7 and 10 following CP administration 8 animals from each of the 3 groups were bled and then were sacrificed by cervical dislocation. Spleens were removed and weighed, and complete blood cell counts performed.
Twenty four hours later and each day thereafter for a total of 4 or 6 days, mice were given a 0.4 ml i.p. injection of either physiological saline (controls), palmitoyldeoxyinosine (2.5 μmoles/mouse), or palmitoyl-xanthosine (2.5 μmoles/mouse). On days 5 and 7 following CP administration 6 of the 12 animals in each of the 3 groups were bled and then sacrificed by cervical dislocation. Spleens were removed and weighed, and complete blood cell counts performed.

[3] = tested on: FDCPmix cells; experiment: FDCPmix cell proliferation in the presence of IL-3 (MTT assay); format: cell-based
Description: The FDCPmix cell line was used as a suitable in vitro model for predicting the effects of hematopoietic factors on pluripotential stem cells. These cells can be maintained in an undifferentiated state in the presence of IL-3 or undergo multi-lineage development in the presence of specific hematopoietic growth factors.
This level of proliferation (100%) served as the control value. Inhibition of proliferation by test compounds was represented as a percent of control.
FDCPmix cells were plated at a density of 5×10^4 cells per well in 96-well plates (5×10^5/ml) using IMDM medium plus 10% fetal bovine serum. […] Test compounds were added at a decreasing concentrations ranging from 10 micrograms/ml down to 1 nanogram/ml. The test compounds included: 3′,5′-O—N^2-tripalmitoyl-2′-deoxyguanosine, 3′,5′-di-O-palmitoyl-2′-deoxy-guanosine, 3′,5′-O—N^2-trioctanoyl-2′-deoxyguanosine, 3′,5′-di-O-octanoyl-2′-deoxyguanosine, and 3′,5′-o-N^2-trioleyl-2′-deoxy-guanosine.

[4] = Ex 48: day 7 after CP, 2.5 μmoles/mouse
[5] = Dose 10 μg, 48 hours, IL-3 25 units/ml
[6] = Ex 51: day 5 after CP, 2 μmoles/mouse i.p. daily, vs Tween-80
[7] = Ex 45: day 7 after CP, dose-dependent, 0.5-5 μmoles/mouse/day
[8] = Ex 46: day 7 after CP, 5.0 μmoles/mouse/day
[9] = Table 8 (Ex 63): 7 days after CP
[10] = Ex 47: day 7 after CP, 2.5 μmoles/mouse/day

Compound: CCCCCCCCCCCCCCCC(=O)OC[C@H]1O[C@@H](n2cnc3c(=O)[nH]c(=O)[nH]c32)[C@H](O)[C@@H]1O [palmitoylxanthosine, Palmitoylxanthosine]
- spleen weight [1, 4]: significantly increased
- Neutrophils [2, 4]: significantly increased
- total leukocytes [2, 4]: significantly increased

Compound: CCCCCCCCCCCCCCCC(=O)OC[C@H]1O[C@@H](n2c(N)nc3c(=O)[nH]c(N)nc32)[C@H](O)[C@@H]1O [palmitoyl-8-aminoguanosine]
- spleen weight ([1]; Ex 59: days 5 and 7 after CP, 25 mg/kg/day): significantly elevated
- Neutrophils ([1]; Ex 59: days 5 and 7 after CP, 25 mg/kg/day in 0.2% Tween 80 i.p.): significantly elevated

Compound: CCCCCCCC(=O)OC[C@H]1O[C@@H](n2cnc3c(=O)[nH]c(N)nc32)C[C@@H]1OC(=O)CCCCCCC [DiOctdG, 3′,5′-di-O-octanoyl-2′-deoxyguanosine]
- Cell proliferation (% of Control) ([3]; Dose 10 ng): 84 ± 2 % of Control
- Cell proliferation (% of Control) ([3]; Dose 39 ng): 86 ± 1 % of Control
- Cell proliferation (% of Control) ([3]; Dose 156 ng): 84 ± 6 % of Control
- Cell proliferation (% of Control) ([3]; Dose 625 ng): 93 ± 1 % of Control
- Cell proliferation (% of Control) ([3]; Dose 2.5 μg): 78 ± 2 % of Control
- Cell proliferation (% of Control) [3, 5]: 100 ± .3 % of Control

Compound: CCCCCCCCCCCCCCCC(=O)O[C@H]1C[C@H](n2cnc3c(=O)[nH]c(N)nc32)O[C@@H]1CO [3′-O-palmitoyldeoxyguanosine, 3′-O-Palmitoyl-2′-Deoxyguanosine]
- total neutrophil counts ([1]; Ex 51: day 5 after CP): significantly elevated
- spleen weight [1, 6]: significantly elevated

Compound: CCCCCCCCCCCC(=O)OC[C@H]1O[C@@H](n2cnc3c(=O)[nH]c(N)nc32)[C@H](O)[C@@H]1O [laurolyguanosine, Lauroylguanosine]
- spleen weight [2]: significantly larger spleens

Compound: CCCCCCCC(=O)Nc1nc2c(ncn2[C@H]2C[C@H](OC(=O)CCCCCCC)[C@@H](COC(=O)CCCCCCC)O2)c(=O)[nH]1 [TriOctdG, 3′,5′-O—N^2-trioctanoyl-2′-deoxyguanosine]
- Cell proliferation (% of Control) ([3]; Dose 10 ng): 87 ± 4 % of Control
- Cell proliferation (% of Control) ([3]; Dose 39 ng): 85 ± 2 % of Control
- Cell proliferation (% of Control) ([3]; Dose 156 ng): 89 ± 6 % of Control
- Cell proliferation (% of Control) ([3]; Dose 625 ng): 86 ± 2 % of Control
- Cell proliferation (% of Control) ([3]; Dose 2.5 μg): 96 ± .1 % of Control
- Cell proliferation (% of Control) [3, 5]: 107 ± 1 % of Control

Compound: CC(=O)OC[C@H]1O[C@@H](n2cnc3c(=O)[nH]c(N)nc32)[C@H](OC(C)=O)[C@@H]1OC(C)=O [acetylguanosine, triacetylguanosine]
- spleen weight [2]: significantly larger spleens

Compound: Tween 20
- recovery of blood cell counts [1]: enhanced the recovery

Compound: Triton X-100
- recovery of blood cell counts [1]: enhanced the recovery

Compound: Tween 40
- recovery of blood cell counts [1]: enhanced the recovery

Compound: CCCCCCCCCCCCCCCC(=O)OC[C@H]1O[C@@H](n2cnc3c(=O)[nH]cnc32)[C@H](O)[C@@H]1O [Palmitoylinosine]
- Hematopoietic Recovery after cyclophosphamide ([1]; Ex 49 heading, 2.5 μmoles/mouse): Improves

Compound: CCCCCCCCCCCCCCCC(=O)OC[C@H]1O[C@@H](n2cnc3c(=O)[nH]c(NC(=O)C(C)C)nc32)C[C@@H]1O [NibuPdG, N^2-isobutyryl-5′-O-palmitoyl-2′-deoxyguanosine]
- total neutrophil counts ([1]; Ex 51: day 5 after CP): significantly elevated
- spleen weight [1, 6]: significantly elevated

Compound: CCCCCCCC(=O)OC[C@H]1O[C@@H](n2cnc3c(=O)[nH]c(N)nc32)[C@H](O)[C@@H]1O
- spleen size ([1]; Ex 45: day 7 after CP, 0.5, 2.5 or 5 μmoles/mouse/day in 0.5% Tween 80 i.p. 6 days): significantly larger
- total number of leukocytes [1, 7]: significantly increased
- Neutrophils [1, 8]: significantly greater
- lymphopoiesis and myelopoiesis in the spleens (histology) [1, 8]: much greater
- spleen weights ([1]; Ex 46: day 7 after CP, 5.0 μmoles/mouse/day in 0.5% Tween 80, vs saline or Tween 80): significantly greater
- neutrophil counts ([1]; Ex 58: 50 mg/kg in 0.2% Tween 80 vs same dose in 0.02% Tween 80): significantly higher
- neutrophil counts ([1]; Ex 58: day 7 after CP, 50 mg/kg/dose in 0.02% and 0.2% Tween 80, vs saline): significantly different from controls
- spleen weight [2]: significantly larger spleens
- total number of neutrophils [2, 7]: significantly increased
- peripheral white blood cells (WBC) [2, 8]: significantly greater

Compound: octylphenol-ethylene oxide condensate [Nonidet P-40]
- recovery of blood cell counts [1]: enhanced the recovery

Compound: polyoxyethylene-10-oleyl ether [Brij 96]
- recovery of blood cell counts [1]: enhanced the recovery

Compound: CCCCCCCC/C=C\CCCCCCCC(=O)Nc1nc2c(ncn2[C@H]2C[C@H](OC(=O)CCCCCCC/C=C\CCCCCCCC)[C@@H](COC(=O)CCCCCCC/C=C\CCCCCCCC)O2)c(=O)[nH]1 [TriOdG, 3′,5′-O-N^2-trioleyl-2′-deoxyguanosine]
- lymphocyte counts ([1]; Ex 63: day 7 after CP, molar equivalent of 25 mg/kg TriPdG): increased
- Platelets [1, 9]: 741 ± 54 K/μl
- Cell proliferation (% of Control) ([3]; Dose 10 ng): 92 ± 5 % of Control
- Cell proliferation (% of Control) ([3]; Dose 39 ng): 91 ± 5 % of Control
- Cell proliferation (% of Control) ([3]; Dose 156 ng): 92 ± 5 % of Control
- Cell proliferation (% of Control) ([3]; Dose 625 ng): 98 ± 6 % of Control
- Cell proliferation (% of Control) ([3]; Dose 2.5 μg): 80 ± 2 % of Control
- Cell proliferation (% of Control) [3, 5]: 110 ± 3 % of Control

Compound: CCCCCCCCCCCCCCCCCC(=O)Nc1nc2c(ncn2[C@H]2C[C@H](OC(=O)CCCCCCCCCCCCCCCCC)[C@@H](COC(=O)CCCCCCCCCCCCCCCCC)O2)c(=O)[nH]1 [TriSdG, 3′,5′-O-N^2-tristearyl-2′-deoxyguanosine]
- Neutrophils [1, 9]: 5.4 ± .5 K/μl
- WBC [1, 9]: 7.6 ± .4 K/μl
- Spleen ([1]; Table 8 (Ex 63): 7 days after CP, TriPdG 25 mg/kg, others molar equivalent, daily 5 days): 85 ± 9 mg

Compound: Nc1nc2c(ncn2[C@@H]2O[C@H](COC(=O)c3ccccc3)[C@@H](O)[C@H]2O)c(=O)[nH]1
- Neutrophils [1, 10]: significantly elevated
- spleen weight [1, 10]: significantly elevated
- total white blood cells ([1]; Ex 47: day 7 after CP, 2.5 μmoles/mouse/day in 0.2% Tween 80 i.p. 6 days): significantly elevated
- platelet number ([2]; Ex 47: day 10 after CP, 2.5 μmoles/mouse/day): significantly greater
